These results are taken from ChEMBL document CHEMBL1157120, “The identification of indacaterol as an ultralong-acting inhaled beta2-adrenoceptor agonist” (J Med Chem, 2010).

For series [1] the following is noted: pH 7.4.
Description: Chromatographic hydrophobicity index at 2 mg/ml at pH 7.4 by rapid gradient HPLC analysis
A further series has as its target Albumin (Homo sapiens, UniProt P02768). The series is described as follows: Binding affinity to human serum albumin by UV/HPLC analysis. The class given is ADME. As to conditions: isolated protein.
Series [2] addresses T1, Beta-2 adrenergic receptor (Homo sapiens, UniProt P07550). The series is described as follows: biochemical.
Description: Displacement of [125I]cyanopindolol from human recombinant beta2 adrenergic receptor expressed in CHO cells by filtration assay
Series [3] addresses T1, Beta-2 adrenergic receptor.
Description: Agonist activity at human beta2 adrenergic receptor assessed as increase in cAMP level by whole cell assay
Series [4] has as its target Beta-2 adrenergic receptor (Cavia porcellus, UniProt Q8K4Z4).
Description: Agonist activity at beta2 adrenergic receptor in guinea pig tracheal strip assessed as inhibition of electrically-induced bronchocontractile response after 30 mins
The next series is filed under the species Cavia porcellus. Briefly: Inhibition of serotonin-induced bronchoconstriction in guinea pig assessed as intrinsic duration of bronchodilatory activity at ED80.
The nature of series [5]: Plasma protein binding in human at 1 to 2000 ng/mL after 3 hrs by liquid scintillation counting. The class given is ADME, cell-free. Conditions: read-out: PPB (converted).
The nature of series [6]: Fraction unbound in human plasma. The class given is ADME, cell-free.
A short description of series [7]: Intrinsic clearance in rat liver microsomes assessed per mg of protein at 1 uM after 10 to 30 mins by LC/MS analysis in presence of UDP-glucuronic acid. The class given is ADME, Microsome.
The nature of series [8]: Intrinsic clearance in rat liver microsomes assessed per mg of protein at 1 uM after 10 to 30 mins by LC/MS analysis in presence of NADPH. The class given is ADME, Microsome. (Liver microsomes are vesicles of endoplasmic reticulum, rich in cytochrome P450 enzymes.)

Some results are limits rather than exact numbers.

Chain of Beta-2 adrenergic receptor (Cavia porcellus, UniProt Q8K4Z4) (Q8K4Z4 whole entry): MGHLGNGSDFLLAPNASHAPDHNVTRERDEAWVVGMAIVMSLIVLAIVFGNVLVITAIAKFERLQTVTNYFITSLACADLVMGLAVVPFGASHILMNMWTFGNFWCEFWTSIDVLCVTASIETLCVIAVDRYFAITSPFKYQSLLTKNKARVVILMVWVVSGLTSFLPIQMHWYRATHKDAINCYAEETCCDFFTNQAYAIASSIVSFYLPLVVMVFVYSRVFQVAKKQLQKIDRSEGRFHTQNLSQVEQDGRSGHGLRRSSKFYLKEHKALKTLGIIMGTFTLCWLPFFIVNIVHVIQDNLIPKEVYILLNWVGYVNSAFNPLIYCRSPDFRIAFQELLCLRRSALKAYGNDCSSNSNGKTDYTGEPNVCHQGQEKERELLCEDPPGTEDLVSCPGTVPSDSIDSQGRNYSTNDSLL
Chain of Albumin (P02768 whole entry): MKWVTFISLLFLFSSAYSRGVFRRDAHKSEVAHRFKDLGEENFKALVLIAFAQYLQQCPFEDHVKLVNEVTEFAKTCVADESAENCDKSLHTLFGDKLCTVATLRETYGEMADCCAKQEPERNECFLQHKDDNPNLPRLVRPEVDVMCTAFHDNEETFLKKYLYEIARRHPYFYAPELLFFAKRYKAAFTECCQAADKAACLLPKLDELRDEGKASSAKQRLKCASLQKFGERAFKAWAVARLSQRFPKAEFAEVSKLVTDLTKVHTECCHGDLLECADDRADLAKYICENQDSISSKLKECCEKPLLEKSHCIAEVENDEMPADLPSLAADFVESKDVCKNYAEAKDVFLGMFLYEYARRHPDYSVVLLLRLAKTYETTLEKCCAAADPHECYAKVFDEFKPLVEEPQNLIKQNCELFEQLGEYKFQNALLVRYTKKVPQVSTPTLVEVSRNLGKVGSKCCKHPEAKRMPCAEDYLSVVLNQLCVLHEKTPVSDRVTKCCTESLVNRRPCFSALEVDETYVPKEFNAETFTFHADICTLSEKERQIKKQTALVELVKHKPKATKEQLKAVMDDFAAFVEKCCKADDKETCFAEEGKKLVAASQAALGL
T1 sequence (P07550 whole entry): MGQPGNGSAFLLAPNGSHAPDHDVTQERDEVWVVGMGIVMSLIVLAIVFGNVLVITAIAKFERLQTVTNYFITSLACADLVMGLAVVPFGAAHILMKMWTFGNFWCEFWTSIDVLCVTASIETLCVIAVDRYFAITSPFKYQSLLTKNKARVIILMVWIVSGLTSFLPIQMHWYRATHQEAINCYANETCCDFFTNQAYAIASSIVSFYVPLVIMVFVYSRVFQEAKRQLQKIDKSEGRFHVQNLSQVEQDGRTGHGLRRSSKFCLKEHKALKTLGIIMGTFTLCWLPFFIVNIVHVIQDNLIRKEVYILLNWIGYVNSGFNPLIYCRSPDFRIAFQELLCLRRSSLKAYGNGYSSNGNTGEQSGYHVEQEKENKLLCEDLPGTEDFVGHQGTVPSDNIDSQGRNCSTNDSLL

In series [1], `O=c1ccc2c([C@@H](O)CNC3Cc4ccccc4C3)ccc(O)c2[nH]1` showed a CHI of 38.2. Besides, on Albumin, the Activity stood at 63.8%. In addition, affinity in series [2] was put at a Ki of 218 nM. In addition, the midpoint of the response in series [3], the EC50, lay at 5 nM. Also, 0.83 nM corresponded to half-maximal inhibition in series [4] (IC50).

Take `OCc1cc(C(O)CNCCCCCCOCCCCc2ccccc2)ccc1O` (centres undefined) [SALMETEROL]: the CHI in series [1] is 56.7. This compound showed an Activity on Albumin of 91.1%.

Regarding `CCc1cc2c(cc1CC)CC(NC[C@H](O)c1ccc(O)c3[nH]c(=O)ccc13)C2` [INDACATEROL], the Time in the series listed under Cavia porcellus was found to be 24 h. For the same compound, the CHI in series [1] is given as 59.7. This compound returned an Activity on Albumin of 95.7%. The fraction unbound at 3 h in [5] was 0.049. Also, the Ki (as a rule, the dissociation constant of the complex between target and ligand, obtained from inhibition or displacement) in series [2] is 76 nM. Also, the response in series [3] was half-maximal at 11 nM (EC50). Also, the fraction unbound in series [6] was 0.043. In addition, the figures for the microsomal CLint at 1 µM in series [7] and in series [8] were 378 µL/min/mg and 76 µL/min/mg, respectively.

`CCCc1cc2c(cc1CCC)CC(NC[C@H](O)c1ccc(O)c3[nH]c(=O)ccc13)C2` gave a CHI in series [1] of more than 70. On Albumin, the Activity amounted to 98.6%. For the same compound, affinity in series [2] was put at a Ki of 119 nM. Moreover, a half-maximal response in series [3] (EC50) required 14 nM. For the same compound, half-maximal inhibition in [4] (IC50) required 20 nM.

With `CCc1cc2c(cc1CC)CC(NC[C@H](O)c1ccc(O[C@@H]3O[C@H](C(=O)O)[C@@H](O)[C@H](O)[C@H]3O)c3[nH]c(=O)ccc13)C2`, the Ki in series [2] is more than 10000 nM.

For the compound `CCCCc1cc2c(cc1CCCC)CC(NC[C@H](O)c1ccc(O)c3[nH]c(=O)ccc13)C2`, in series [1], the CHI was more than 70. Also, the Activity at Albumin is listed as 99.5%. The same compound registered a Ki in [2] of 112 nM. In addition, the half-maximal effective concentration (EC50) – broadly, the concentration giving half of the maximal effect – in [3] was determined as 25 nM. In [4], the IC50 (usually the concentration at which inhibition is half-maximal) was more than 1000 nM.

The compound `COc1ccc(C[C@@H](C)NC[C@H](O)c2ccc(O)c3[nH]c(=O)ccc23)cc1` [CARMOTEROL] showed a CHI in [1] of 37.7. For the same compound, the Activity on Albumin amounted to 57.1%. Moreover, the inhibition constant (Ki) in series [2] turned out to be 3.19 nM. The compound also registered a 50% effective concentration (EC50) in series [3] of 0.76 nM. In addition, the 50% inhibitory concentration (IC50) in [4] is 0.3 nM.

In turn, `CC(C)(C)NCC(O)c1ccc(O)c(CO)c1` (centres undefined) [ALBUTEROL] came in with a CHI in [1] of 21. For the same compound, on Albumin, the Activity is reported as 29.9%.

Take `COc1cc2c(cc1OC)CC(NC[C@H](O)c1ccc(O)c3[nH]c(=O)ccc13)C2`: the CHI in series [1] came to 32.4. At Albumin, this compound came in with an Activity of 59.5%. The same compound displayed a Ki in series [2] of 342 nM. The compound also returned a concentration for a half-maximal effect (EC50) in series [3] of 18 nM. The same compound returned a 50% inhibitory concentration (IC50) in [4] of 2.3 nM.

In the case of `CCc1ccc(CC)c2c1CC(NC[C@H](O)c1ccc(O)c3[nH]c(=O)ccc13)C2`, the CHI in [1] is reported as 62.9. On Albumin, the Activity was found to be 94%. Moreover, in series [2], the Ki is 692 nM. Moreover, in series [3], the EC50 worked out at 115 nM. For the same compound, the concentration for half-maximal inhibition (IC50) in [4] is 75 nM.

`Cc1cc2c(cc1C)CC(NC[C@H](O)c1ccc(O)c3[nH]c(=O)ccc13)C2`: the CHI in [1] was 54.9. Moreover, at Albumin, the Activity worked out at 89.8%. In series [2], this compound had an inhibition constant (Ki) of 522 nM. In series [3], the half-maximal effective concentration (EC50) stood at 39 nM. In [4], the IC50 came to 48 nM.
